pIC50: −log10 of the molar value.
Key:
Nb-TP02 = assay: Nb-based indirect competitive ELISA for TPPU (TPPU immunoassay); type: binding, llama; details: for TPPU immunoassay CR: CR% = IC50 (TPPU)/IC50 (analog) × 100%; for TPPU immunoassay IC50: Nb-TP02, cAg 6-OVA
Source text: The limit of detection (LOD) of Nb-based ELISAs for detecting the concentrations of the sEHI was defined as the concentration of sEHI that provided a 10% inhibition rate (IC10 value). […]

Nb-EC03 = assay: Nb-based indirect competitive ELISA for EC5026 (EC5026 immunoassay); details: for EC5026 immunoassay CR: CR% = IC50 (EC5026)/IC50 (analog) × 100%; for EC5026 immunoassay IC50: Nb-EC03, cAg 2-BSA
Description: (d) 100 μL of HRP-anti-HA was introduced, incubated and shaken for another 60 min; (e) after the final washing step, 100 μL of the TMB substrate solution was added and incubated for 15 min, followed by being stopped by 50 μL of H2SO4 solution (1.0 M). […] The linear range was established between the IC20 value and the IC80 value.

human sEH [1] = target: T1, human sEH (Homo sapiens, UniProt P34913); assay: Activity on the target sEH enzyme; type: biochemical
T1 sequence (P34913 1-555): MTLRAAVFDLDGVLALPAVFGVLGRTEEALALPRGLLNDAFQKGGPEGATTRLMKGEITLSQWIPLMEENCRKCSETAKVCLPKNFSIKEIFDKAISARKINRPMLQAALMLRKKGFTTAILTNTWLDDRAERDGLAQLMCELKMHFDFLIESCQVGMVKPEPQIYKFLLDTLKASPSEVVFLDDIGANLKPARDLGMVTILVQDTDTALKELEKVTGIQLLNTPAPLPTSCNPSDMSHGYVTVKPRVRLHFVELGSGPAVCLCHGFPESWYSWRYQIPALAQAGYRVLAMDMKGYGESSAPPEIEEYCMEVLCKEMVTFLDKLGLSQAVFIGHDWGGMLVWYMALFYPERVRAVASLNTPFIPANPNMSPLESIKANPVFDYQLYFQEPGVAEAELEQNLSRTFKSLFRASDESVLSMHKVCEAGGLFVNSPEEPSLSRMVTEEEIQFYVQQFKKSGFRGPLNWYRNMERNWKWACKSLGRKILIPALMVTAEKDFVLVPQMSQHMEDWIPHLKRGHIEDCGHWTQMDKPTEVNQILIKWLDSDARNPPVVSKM

[2] = LC-MS analysis of urine samples from human clinical trial with EC5026; type: in vivo
Description: To assess the feasibility of Nb-based ELISAs for EC5026 and TPPU, the human urine and FBS were used as the matrix for precision and accuracy determination. The precision is shown as coefficient variation (CV%). The accuracy is expressed by the recovery, and the recovery is calculated as (Found concentration/Spiked concentration) × 100%. The standard solutions of EC5026 or TPPU were spiked blindly into human urine and FBS to obtain final concentrations of 1.25, 5 and 20 ng/mL, respectively. The experimental urine samples were collected from participants in the human clinical trial for EC5026, and the supernatant was collected by centrifugation (10,000 g, 5 min, 4 °C). The processed clinical samples were divided into two aliquots. One was diluted 10 times and then was detected by the Nb-based ELISA, and the other was for the LC-MS analysis directly in a bind fashion by different scientists.
The urine samples were analyzed by an LC-MS/MS method using Waters (Milford, MA, USA) Acquity UPLC system with Waters Xevo TQS tandem mass spectrometer. The separation was implemented on a Phenomenex Kinetex 150 x 2 mm C18 column. The mobile phases are 0.1 % of acetic acid in water as phase A, 0.1% of acetic acid in methanol as phase B. The gradient of the separation started from 50% of B and increased to 63% of B at 3.6 min then ramped to 95% at 4 min. The flow rate was 0.4 mL/min. The mass spectrometer was operated with negative electrospray ionization. The MRM transitions are 404.2/194 for EC5026, 420.2/194 for both M1 and M2. The source parameters of mass spectrometer are: capillary voltage: –3 KV, desolvation temperature: 300°C, desolvation gas flow: 800 L/hr; cone: 150 L/min; nebulizer: 7 bar.

human sEH [3] = target: T1, human sEH; assay: Inhibition of human sEH in vitro (potency unit definition, assay of Jones et al.); type: biochemical; details: 1 nM human sEH, read-out: 1 Potency unit: concentration permitting the inhibition of 50% of 1 nM of the human sEH
[4] = Subject 1, 0–8 h post exposure to EC5026
[5] = Subject 1, 8–16 h post exposure to EC5026
[6] = Subject 1, 16–24 h post exposure to EC5026
[7] = Subject 1, 24–32 h post exposure to EC5026
[8] = Subject 1, 32–40 h post exposure to EC5026
[9] = Subject 1, 40–48 h post exposure to EC5026
[10] = Subject 2, 0–8 h post exposure to EC5026
[11] = Subject 2, 8–16 h post exposure to EC5026
[12] = Subject 2, 16–24 h post exposure to EC5026
[13] = Subject 2, 24–32 h post exposure to EC5026
[14] = Subject 2, 32–40 h post exposure to EC5026
[15] = Subject 2, 40–48 h post exposure to EC5026
[16] = Subject 3, 0–8 h post exposure to EC5026
[17] = Subject 3, 8–16 h post exposure to EC5026
[18] = Subject 3, 16–24 h post exposure to EC5026
[19] = Subject 3, 24–32 h post exposure to EC5026
[20] = Subject 3, 32–40 h post exposure to EC5026
[21] = Subject 3, 40–48 h post exposure to EC5026

O=C(Nc1ccc(OC(F)(F)F)c(F)c1)NC1CCNCC1 [Compound 11, 1-(3-fluoro-4-(trifluoromethoxy)phenyl)-3-(piperidin-4-yl)urea]
TPPU immunoassay CR (Nb-TP02): 33.4% | TPPU immunoassay IC50 (Nb-TP02): 8.91 ng/mL | EC5026 immunoassay CR (Nb-EC03): 34.0% | EC5026 immunoassay IC50 (Nb-EC03): 4.23 ng/mL

O=C(Nc1ccc(OC(F)(F)F)cc1)NC1CCNCC1 [Compound 12]
TPPU immunoassay CR (Nb-TP02): 25.6% | TPPU immunoassay IC50 (Nb-TP02): 11.66 ng/mL

Nc1ccc(OC(F)(F)F)c(F)c1 [Compound 14, 3-fluoro-4-(trifluoromethoxy)aniline]
pIC50 (human sEH [1]): < 4.30 | TPPU immunoassay CR (Nb-TP02): <0.01% | TPPU immunoassay IC50 (Nb-TP02): >300000 ng/mL | EC5026 immunoassay CR (Nb-EC03): <0.01% | EC5026 immunoassay IC50 (Nb-EC03): >150000 ng/mL

Nc1ccc(OC(F)(F)F)cc1 [Compound 15, 4-(trifluoromethoxy)aniline]
pIC50 (human sEH [1]): < 4.30 | TPPU immunoassay CR (Nb-TP02): <0.01% | TPPU immunoassay IC50 (Nb-TP02): >300000 ng/mL | EC5026 immunoassay CR (Nb-EC03): <0.01% | EC5026 immunoassay IC50 (Nb-EC03): >150000 ng/mL

CC[C@H](C)C(=O)N1CCC(NC(=O)Nc2ccc(OC(F)(F)F)c(F)c2)CC1 [EC5026]
[EC5026] LC-MS analysis [2, 4]: 2.96 ng/mL | [EC5026] LC-MS analysis [2, 5]: 1.41 ng/mL | [EC5026] LC-MS analysis [2, 6]: 1.81 ng/mL | [EC5026] LC-MS analysis [2, 7]: 1.43 ng/mL | [EC5026] LC-MS analysis [2, 8]: 1.63 ng/mL | [EC5026] LC-MS analysis [2, 9]: 1.24 ng/mL | [EC5026] LC-MS analysis [2, 10]: 3.01 ng/mL | [EC5026] LC-MS analysis [2, 11]: 5.57 ng/mL | [EC5026] LC-MS analysis [2, 12]: 4.86 ng/mL | [EC5026] LC-MS analysis [2, 13]: 2.84 ng/mL | [EC5026] LC-MS analysis [2, 14]: 3.46 ng/mL | [EC5026] LC-MS analysis [2, 15]: 2.01 ng/mL | [EC5026] LC-MS analysis [2, 16]: 6.53 ng/mL | [EC5026] LC-MS analysis [2, 17]: 4.69 ng/mL | [EC5026] LC-MS analysis [2, 18]: 2.59 ng/mL | [EC5026] LC-MS analysis [2, 19]: 2.98 ng/mL | [EC5026] LC-MS analysis [2, 20]: 2.06 ng/mL | [EC5026] LC-MS analysis [2, 21]: 1.18 ng/mL | TPPU immunoassay CR (Nb-TP02): 86.6% | TPPU immunoassay IC50 (Nb-TP02): 3.44 ng/mL | EC5026 immunoassay CR (Nb-EC03): 100% | Curve parameters IC50 (Nb-EC03; Nb-EC03, cAg 1-BSA (homologous)): 7.32 ng/mL | Curve parameters IC50 (Nb-EC03; Nb-EC03, cAg 1-OVA (homologous)): 5.68 ng/mL | EC5026 immunoassay IC50 (Nb-EC03): 1.44 ng/mL | Curve parameters IC50 (Nb-EC03; Nb-EC03, cAg 2-OVA (homologous)): 1.48 ng/mL | Curve parameters IC50 (Nb-EC03; Nb-EC03, cAg 3-BSA (heterologous)): 11.45 ng/mL | Curve parameters IC50 (Nb-EC03; Nb-EC03, cAg 3-OVA (heterologous)): 12.49 ng/mL

C[C@H](C(=O)N1CCC(NC(=O)Nc2ccc(OC(F)(F)F)c(F)c2)CC1)[C@@H](C)O [M1, 1-(3-fluoro-4-(trifluoromethoxy)phenyl)-3-(1-((2S,3R)-3-hydroxy-2-methylbutanoyl)piperidin-4-yl)urea]
[M1] LC-MS analysis [2, 4]: 24.22 ng/mL | [M1] LC-MS analysis [2, 5]: 44.30 ng/mL | [M1] LC-MS analysis [2, 6]: 35.82 ng/mL | [M1] LC-MS analysis [2, 7]: 48.89 ng/mL | [M1] LC-MS analysis [2, 8]: 36.78 ng/mL | [M1] LC-MS analysis [2, 9]: 33.49 ng/mL | [M1] LC-MS analysis [2, 10]: 12.48 ng/mL | [M1] LC-MS analysis [2, 11]: 38.41 ng/mL | [M1] LC-MS analysis [2, 12]: 43.37 ng/mL | [M1] LC-MS analysis [2, 13]: 35.76 ng/mL | [M1] LC-MS analysis [2, 14]: 55.70 ng/mL | [M1] LC-MS analysis [2, 15]: 40.74 ng/mL | [M1] LC-MS analysis [2, 16]: 13.41 ng/mL | [M1] LC-MS analysis [2, 17]: 36.41 ng/mL | [M1] LC-MS analysis [2, 18]: 67.03 ng/mL | [M1] LC-MS analysis [2, 19]: 31.25 ng/mL | [M1] LC-MS analysis [2, 20]: 67.62 ng/mL | [M1] LC-MS analysis [2, 21]: 98.28 ng/mL | TPPU immunoassay CR (Nb-TP02): 72.7% | TPPU immunoassay IC50 (Nb-TP02): 4.10 ng/mL | EC5026 immunoassay IC50 (Nb-EC03): 1.47 ng/mL | pIC50 (human sEH [3]): 10.02

C[C@H](O)[C@H](C)C(=O)N1CCC(NC(=O)Nc2ccc(OC(F)(F)F)c(F)c2)CC1 [M2, 1-(3-fluoro-4-(trifluoromethoxy)phenyl)-3-(1-((2S,3S)-3-hydroxy-2-methylbutanoyl)piperidin-4-yl)urea]
[M2] LC-MS analysis [2, 4]: 28.66 ng/mL | [M2] LC-MS analysis [2, 5]: 61.59 ng/mL | [M2] LC-MS analysis [2, 6]: 51.04 ng/mL | [M2] LC-MS analysis [2, 7]: 67.21 ng/mL | [M2] LC-MS analysis [2, 8]: 47.44 ng/mL | [M2] LC-MS analysis [2, 9]: 43.94 ng/mL | [M2] LC-MS analysis [2, 10]: 12.99 ng/mL | [M2] LC-MS analysis [2, 11]: 53.46 ng/mL | [M2] LC-MS analysis [2, 12]: 59.34 ng/mL | [M2] LC-MS analysis [2, 13]: 45.69 ng/mL | [M2] LC-MS analysis [2, 14]: 75.89 ng/mL | [M2] LC-MS analysis [2, 15]: 52.38 ng/mL | [M2] LC-MS analysis [2, 16]: 14.93 ng/mL | [M2] LC-MS analysis [2, 17]: 50.31 ng/mL | [M2] LC-MS analysis [2, 18]: 106.12 ng/mL | [M2] LC-MS analysis [2, 19]: 44.20 ng/mL | [M2] LC-MS analysis [2, 20]: 103.57 ng/mL | [M2] LC-MS analysis [2, 21]: 158.70 ng/mL | TPPU immunoassay CR (Nb-TP02): 59.4% | TPPU immunoassay IC50 (Nb-TP02): 5.01 ng/mL | EC5026 immunoassay IC50 (Nb-EC03): 1.38 ng/mL | pIC50 (human sEH [3]): 10.02

CCC(=O)N1CCC(NC(=O)Nc2ccc(OC(F)(F)F)cc2)CC1 [TPPU, 1-trifluoromethoxyphenyl-3-(1-propionylpiperidin-4-yl)urea]
TPPU immunoassay CR (Nb-TP02): 100% | Curve parameters IC50 (Nb-TP02; Nb-TP02, cAg 4-BSA (homologous)): 2.53 ng/mL | Curve parameters IC50 (Nb-TP02; Nb-TP02, cAg 4-OVA (homologous)): 2.76 ng/mL | Curve parameters IC50 (Nb-TP02; Nb-TP02, cAg 5-BSA (homologous)): 4.53 ng/mL | Curve parameters IC50 (Nb-TP02; Nb-TP02, cAg 5-OVA (homologous)): 2.44 ng/mL | Curve parameters IC50 (Nb-TP02; Nb-TP02, cAg 6-BSA (heterologous)): 2.40 ng/mL | TPPU immunoassay IC50 (Nb-TP02): 2.98 ng/mL | EC5026 immunoassay CR (Nb-EC03): 52.9% | EC5026 immunoassay IC50 (Nb-EC03): 2.72 ng/mL

Reference: publication PMC10568103, “Quantification of soluble epoxide hydrolase inhibitors in experimental and clinical samples using the nanobody-based ELISA” (Journal of Pharmaceutical Analysis, 2023)
